# Experimental data reported in the PolyMetriX glass transition set.
# ± gives the standard deviation of the reports.
row,glass transition temperature,Compound
1,-2.00 °C,*O[Si](C)(C)c1cccc(C(F)(F)C(F)(F)c2cccc([Si](*)(C)C)c2)c1 (repeat unit)
2,-46.48 °C,*O[Si](C)(C)CCCNC(=O)C(=O)NCCC[Si](*)(C)C (repeat unit)
3,113.00 °C,*Oc1ccc(C(CCCC)(CCCC)c2ccc(OC(*)=O)cc2)cc1 (repeat unit)
4,383.00 °C,*c1ccc(-c2ccc3nc(*)cc(-c4ccccc4)c3c2)cc1 (repeat unit)
5,178.00 °C,*c1cccc(CCCOc2cccc(N3C(=O)c4cccc(-c5ccc6c(c5)C(=O)N(*)C6=O)c4C3=O)c2)c1 (repeat unit)
6,310.00 °C,*Oc1ccc(C(=O)Nc2ccc(S(=O)(=O)c3ccc(NC(=O)c4ccc(Oc5nc(*)nc(Sc6ccccc6)n5)cc4)cc3)cc2)cc1 (repeat unit)
7,100.00 °C,*CC(*)(C)C(=O)Oc1ccc(C(=O)Oc2ccc(-c3ccccc3)cc2)cc1 (repeat unit)
8,240.00 °C,*Nc1ccc(C(c2ccc(NC(=O)c3cc(NC(=O)CCCN4C(=O)c5ccccc5C4=O)cc(C(*)=O)c3)cc2)(C(F)(F)F)C(F)(F)F)cc1 (repeat unit)
9,22.00 °C,*CC(*)C(=O)OCCOc1ccc(C(C)(C)c2ccc(OCCO)cc2)cc1 (repeat unit)
10,-75.00 °C,*O[Si](*)(C)CCC(F)(F)C(F)(F)C(F)(F)C(F)(F)F (repeat unit)
11,25.00 °C,*CC(O)COC(=O)CCCCCCCCCCC(=O)OCC(O)COc1ccc(C(C)(C)c2ccc(O*)cc2)cc1 (repeat unit)
12,280.00 °C,*c1ccc(NC(=O)CN2C(=O)c3ccc(C(c4ccc5c(c4)C(=O)N(CC(=O)Nc4ccc(-c6nnc(*)o6)cc4)C5=O)(C(F)(F)F)C(F)(F)F)cc3C2=O)cc1 (repeat unit)
13,125.00 °C,*Oc1ccc(C(=O)c2ccc(OC(=O)OC3C(C)(C)C(OC(*)=O)C3(C)C)cc2)cc1 (repeat unit)
14,456.00 °C,*c1ccc(-c2cc(C(C)(C)C)c(Oc3ccc(N4C(=O)c5ccc6c7c(ccc(c57)C4=O)C(=O)N(*)C6=O)cc3C(F)(F)F)c(C(C)(C)C)c2)cc1 (repeat unit)
15,200.00 °C,*/C(=C(/*)c1ccc(CCCC)cc1)c1ccccc1 (repeat unit)
16,173.00 °C,*c1ccc(-c2nnc(*)o2)c(OCCCCCCCC)c1 (repeat unit)
17,77.00 °C,*OC(C)COC(=O)c1cccc(C(*)=O)c1 (repeat unit)
18,125.00 °C,*Oc1cccc(NC(=O)CCCCCCCCC(=O)Nc2ccc(*)cc2)c1 (repeat unit)
19,16.00 °C,*CCOCCOC(=O)c1cccc(C(=O)O*)c1 (repeat unit)
20,156.00 °C,*Oc1ccc(Oc2ccc(C(=O)c3ccccc3)c(-c3cc(*)ccc3C(=O)c3ccccc3)c2)cc1 (repeat unit)
21,150.00 °C,*Oc1cc(Oc2ccc(C(C)(C)c3ccc(*)cc3)cc2)cc([N+](=O)[O-])c1 (repeat unit)
22,6.50 °C,*OC(=O)OCCCCCCCCCCOC(=O)OC1COC2C(*)COC12 (repeat unit)
23,18.00 °C,*Oc1ccc(CC(NC(=O)CCc2ccc(OC(=O)COCCOCC(*)=O)cc2)C(=O)OCCOCCOCC)cc1 (repeat unit)
24,340.00 °C,*c1c(C)cc(-c2cc(C)c(-n3c(=O)c4cc5c(=O)n(*)c(=O)c5cc4c3=O)c(C)c2)cc1C (repeat unit)
25,151.00 °C,*c1cc(C(=O)OCCCCCCCCCCOc2ccc(-c3ccc(OC(=O)c4ccc(OCC(F)CCCCCC)cc4)cc3)cc2)c(*)s1 (repeat unit)
26,-73.00 °C,*CCCCOC(=O)CCSCCCCCCSCCC(=O)O* (repeat unit)

row,glass transition temperature,Compound
1,389.00 °C,*Oc1ccc(C(=O)c2ccc(Oc3ccc4c(=O)n5c6cc(-c7ccc8c(c7)nc7c9ccc(*)c%10cccc(c(=O)n87)c%109)ccc6nc5c5cccc3c45)cc2)cc1 (repeat unit)
2,281.00 °C,*c1ccc(Oc2ccc(N3C(=O)c4ccc(S(=O)(=O)c5ccc6c(c5)C(=O)N(*)C6=O)cc4C3=O)cc2Br)c(Br)c1 (repeat unit)
3,273.00 °C,*c1ccc(OC(=O)c2cccc(C(=O)Oc3ccc(C4(*)OC(=O)c5ccccc54)cc3C)c2)c(C)c1 (repeat unit)
4,276.00 °C,*C(=O)c1ccc2c(c1)C(=O)N(c1ccc(C(=O)c3cccc(C(=O)c4ccc(N5C(=O)c6ccc(*)cc6C5=O)cc4)c3)cc1)C2=O (repeat unit)
5,199.00 °C,*c1ccc(Oc2cccc(Oc3ccc(N4C(=O)c5ccc(Oc6ccc(Oc7ccc8c(c7)C(=O)N(*)C8=O)cc6)cc5C4=O)cc3)c2)cc1 (repeat unit)
6,-43.00 °C,*O[Si](C)(CCC(F)(F)F)O[Si](C)(CCC(F)(F)F)O[Si](C)(CCC(F)(F)F)CCC(F)(F)C(F)(F)C(F)(F)C(F)(F)C(F)(F)C(F)(F)CC[Si](*)(C)CCC(F)(F)F (repeat unit)
7,63.00 °C,*Oc1ccc(CC(NC(=O)Cc2ccc(OC(=O)CCCCC(*)=O)cc2)C(=O)OCC)cc1 (repeat unit)
8,250.00 °C,*C(=O)Nc1ccc(Oc2ccc(Oc3ccc(N4C(=O)c5ccc(*)cc5C4=O)cc3)cc2)cc1 (repeat unit)
9,231.30 °C,*Oc1ccc(S(=O)(=O)c2ccc(Oc3c(C)cc(C(C)(C)c4cc(C)c(*)c(C)c4)cc3C)cc2)cc1 (repeat unit)
10,-57.00 °C,*CCCCOC(=O)CCCCCCCCC(=O)O* (repeat unit)
11,120.00 °C,*Oc1ccc(/N=C/c2ccc(Oc3ccc(C(C)(C)c4ccc(Oc5ccc(/C=N/c6ccc(Oc7ccc(-c8ccc(*)cc8)cc7)cc6)cc5)cc4)cc3)cc2)cc1 (repeat unit)
12,385.00 °C,*c1ccc(-c2ccc(-n3c(=O)c4c(C(F)(F)F)c5c(=O)n(*)c(=O)c5c(C(F)(F)F)c4c3=O)cc2C)c(C)c1 (repeat unit)
13,155.00 °C,*C1=C(c2ccc(-c3ccc4c(c3)C(CCCCCC)(CCCCCC)c3cc(-c5ccc(*)cc5)ccc3-4)cc2)C(=O)N(CCCC)C1=O (repeat unit)
14,36.00 °C,*Oc1ccc(C(=O)OC(C)COC(C)COC(C)COC(=O)c2ccc(OC(=O)c3ccc(C(*)=O)cc3)cc2)cc1 (repeat unit)
15,216.00 °C,*Oc1ccc(Oc2ccc(C(=O)Nc3ccc(Cc4ccc(NC(=O)c5ccc(*)cc5)cc4)cc3)cc2)cc1 (repeat unit)
16,225.00 °C,*Oc1ccc(-c2cc(-c3ccccc3)c(-c3ccc(OC(=O)c4ccc(C(*)=O)cc4-c4ccccc4)cc3)c(-c3ccccc3)c2-c2ccccc2)cc1 (repeat unit)
17,130.50 °C,*CC(*)OC(=O)c1ccc([Si](C)(C)C)cc1 (repeat unit)
18,260.00 °C,*c1ccc(Oc2ccc(S(=O)(=O)c3ccc(Oc4ccc(-c5cc(*)[nH]n5)cc4)cc3)cc2)cc1 (repeat unit)
19,292.00 °C,*c1ccc(Oc2ccc(S(=O)(=O)c3ccc(Oc4ccc(-c5nc(-c6cccc(-c7nc(*)c(-c8ccccc8)[nH]7)c6)[nH]c5-c5ccccc5)cc4)cc3)cc2)cc1 (repeat unit)
20,412.00 °C,*c1ccc(N2C(=O)c3ccc(C(=O)c4ccc5c(c4)C(=O)N(c4ccc6[nH]c(*)nc6c4)C5=O)cc3C2=O)cc1 (repeat unit)
21,47.00 °C,*Oc1ccc(CC(NC(=O)CCc2ccc(OC(=O)CCCCCCCCC(*)=O)cc2)C(=O)OC)cc1 (repeat unit)
22,222.00 °C,*c1ccc2c(c1)C(=O)N(c1ccc(-c3ccc(N4C(=O)c5ccc(C(*)(C(F)(F)F)C(F)(F)F)cc5C4=O)c(OCCN(CC)c4ccc(C(C#N)=C(C#N)C#N)cc4)c3)cc1OCCN(CC)c1ccc(C(C#N)=C(C#N)C#N)cc1)C2=O (repeat unit)
23,376.00 °C,*C(=O)c1ccc2c(c1)C(=O)N(c1ccc(C3(c4ccc(N5C(=O)c6ccc(*)cc6C5=O)cc4)c4ccccc4-c4ccccc43)cc1)C2=O (repeat unit)
24,219.00 °C,*CC(OCC(C)C)C1(C)C(=O)OC(=O)C1(*)C (repeat unit)
25,206.00 °C,*Oc1ccc(OC(=O)c2ccc(C(*)=O)cc2)cc1C1CCCCC1 (repeat unit)
26,91.00 °C,*CC(*)(C)C(=O)OCCCCCCOc1ccc(/N=N/c2ccc(OC)cc2)cc1 (repeat unit)

row,Compound,glass transition temperature
1,*Oc1ccc(Oc2ccc(C(=O)c3ccc(P(=O)(c4ccccc4)c4ccc(C(=O)c5ccc(*)cc5)cc4)cc3)cc2)cc1 (repeat unit),207.00 °C
2,*OP(=O)(Oc1ccc(Br)cc1)Oc1c(C)cc(S(=O)(=O)c2cc(C)c(*)c(C)c2)cc1C (repeat unit),162.00 °C
3,*CCOP(=O)(/N=N/c1ccc(C(=O)c2ccc(/N=N/P(=O)(O*)OCC)cc2)cc1)OCC (repeat unit),33.00 °C
4,*CC(*)c1ccc([SiH](C)C)cc1 (repeat unit),105.00 °C
5,*c1cccc(P(C)(=O)c2cccc(N3C(=O)c4ccc(NC(=O)OCCOc5ccc(P(=O)(c6ccccc6)c6ccc(OCCOC(=O)Nc7ccc8c(c7)C(=O)N(*)C8=O)cc6)cc5)cc4C3=O)c2)c1 (repeat unit),201.00 °C
6,*CC(*)n1cc2ccccc2n1 (repeat unit),41.50 °C
7,*CC(*)(C)C(=O)OCSC (repeat unit),60.00 °C
8,*CC(*)C(=O)Nc1ccccc1Cl (repeat unit),63.00 °C
9,*CC(*)(C)C(=O)OCCC1CCCCC1 (repeat unit),110.00 °C
10,*CCCCSSCCCCO* (repeat unit),-76.00 °C
11,*Sc1ccc(Sc2ccc(Sc3ccc(P(=O)(c4ccccc4)c4ccc(*)cc4)cc3)cc2)cc1 (repeat unit),175.00 °C
12,*CC(*)C(=O)OCCC(C)OC (repeat unit),-56.00 °C
13,*CC(*)C#N (repeat unit) [Poly(acrylonitrile)],110 ± 12 °C
14,*CCCCNC(=O)CCCCC(=O)N* (repeat unit),58.00 °C
15,*c1cn(*)c2ccccc12 (repeat unit),65.00 °C
